The NIST ThermoML archive (doi:10.1007/s10765-008-0482-1)
“And” between values parts separate entries of the source, which are not always exact repeats. Equal values may be shown once.

Experiment: xn = mol fraction of the nth substance listed
Settings: Fluid (supercritical or subcritical phases), Parallel plate method

CC [ethane] + O=C=O
Settings | thermal conductivity
296.64 K, Amount density=7450 mol/m3, x2 = 0.25 | 0.186 W/m/K
296.65 K, Amount density=7450 mol/m3, x2 = 0.25 | 0.183 W/m/K
296.66 K, Amount density=6830 mol/m3, x2 = 0.25 | 0.138 W/m/K
296.69 K, Amount density=7450 mol/m3, x2 = 0.25 | 0.186 W/m/K
296.7 K, Amount density=6870 mol/m3, x2 = 0.25 | 0.177 W/m/K and 0.188 W/m/K
296.7 K, Amount density=7450 mol/m3, x2 = 0.25 | 0.154 W/m/K
296.71 K, Amount density=6870 mol/m3, x2 = 0.25 | 0.214 W/m/K
296.71 K, Amount density=7450 mol/m3, x2 = 0.25 | 0.175 W/m/K
296.72 K, Amount density=7450 mol/m3, x2 = 0.25 | 0.164 W/m/K and 0.166 W/m/K
296.73 K, Amount density=6870 mol/m3, x2 = 0.25 | 0.195 W/m/K
296.74 K, Amount density=6830 mol/m3, x2 = 0.25 | 0.199 W/m/K
296.74 K, Amount density=7450 mol/m3, x2 = 0.25 | 0.145 W/m/K
296.75 K, Amount density=6870 mol/m3, x2 = 0.25 | 0.204 W/m/K
296.75 K, Amount density=7450 mol/m3, x2 = 0.25 | 0.157 W/m/K
296.76 K, Amount density=6870 mol/m3, x2 = 0.25 | 0.189 W/m/K
296.77 K, Amount density=6870 mol/m3, x2 = 0.25 | 0.195 W/m/K
296.79 K, Amount density=6830 mol/m3, x2 = 0.25 | 0.218 W/m/K
296.8 K, Amount density=6870 mol/m3, x2 = 0.25 | 0.168 W/m/K
296.8 K, Amount density=8450 mol/m3, x2 = 0.25 | 0.0921 W/m/K
296.82 K, Amount density=6710 mol/m3, x2 = 0.26 | 0.118 W/m/K
296.83 K, Amount density=6870 mol/m3, x2 = 0.25 | 0.157 W/m/K
296.84 K, Amount density=6710 mol/m3, x2 = 0.26 | 0.111 W/m/K
296.84 K, Amount density=6830 mol/m3, x2 = 0.25 | 0.142 W/m/K
296.85 K, Amount density=5680 mol/m3, x2 = 0.25 | 0.0729 W/m/K
296.86 K, Amount density=2940 mol/m3, x2 = 0.25 | 0.0306 W/m/K
296.87 K, Amount density=877 mol/m3, x2 = 0.26 | 0.0217 W/m/K
296.87 K, Amount density=6710 mol/m3, x2 = 0.26 | 0.11 W/m/K
296.88 K, Amount density=446 mol/m3, x2 = 0.25 | 0.021 W/m/K
296.88 K, Amount density=7450 mol/m3, x2 = 0.25 | 0.145 W/m/K
296.88 K, Amount density=7490 mol/m3, x2 = 0.25 | 0.139 W/m/K
297.16 K, Amount density=3090 mol/m3, x2 = 0.26 | 0.0313 W/m/K
297.44 K, Amount density=8450 mol/m3, x2 = 0.25 | 0.0821 W/m/K
297.46 K, Amount density=5680 mol/m3, x2 = 0.25 | 0.0677 W/m/K
297.46 K, Amount density=6830 mol/m3, x2 = 0.25 | 0.11 W/m/K and 0.102 W/m/K
297.47 K, Amount density=2940 mol/m3, x2 = 0.25 | 0.0305 W/m/K
297.47 K, Amount density=6830 mol/m3, x2 = 0.25 | 0.102 W/m/K
297.48 K, Amount density=7490 mol/m3, x2 = 0.25 | 0.111 W/m/K
297.5 K, Amount density=10780 mol/m3, x2 = 0.25 | 0.0671 W/m/K
297.52 K, Amount density=446 mol/m3, x2 = 0.25 | 0.021 W/m/K
298.49 K, Amount density=9120 mol/m3, x2 = 0.74 | 0.06 W/m/K
298.69 K, Amount density=6870 mol/m3, x2 = 0.25 | 0.169 W/m/K
298.95 K, Amount density=7450 mol/m3, x2 = 0.25 | 0.081 W/m/K
298.99 K, Amount density=5680 mol/m3, x2 = 0.25 | 0.0623 W/m/K
298.99 K, Amount density=6830 mol/m3, x2 = 0.25 | 0.0779 W/m/K
298.99 K, Amount density=7490 mol/m3, x2 = 0.25 | 0.0811 W/m/K
298.99 K, Amount density=10780 mol/m3, x2 = 0.25 | 0.0684 W/m/K
299 K, Amount density=2940 mol/m3, x2 = 0.25 | 0.0305 W/m/K
299.01 K, Amount density=446 mol/m3, x2 = 0.25 | 0.0211 W/m/K
299.01 K, Amount density=6630 mol/m3, x2 = 0.74 | 0.0467 W/m/K
299.02 K, Amount density=446 mol/m3, x2 = 0.25 | 0.0212 W/m/K
301.91 K, Amount density=7730 mol/m3, x2 = 0.5 | 0.0493 W/m/K
301.93 K, Amount density=6710 mol/m3, x2 = 0.26 | 0.0624 W/m/K
301.95 K, Amount density=7530 mol/m3, x2 = 0.5 | 0.0505 W/m/K
301.96 K, Amount density=6960 mol/m3, x2 = 0.5 | 0.0531 W/m/K
301.98 K, Amount density=435 mol/m3, x2 = 0.5 | 0.0203 W/m/K
302 K, Amount density=6830 mol/m3, x2 = 0.25 | 0.0658 W/m/K
302.01 K, Amount density=877 mol/m3, x2 = 0.26 | 0.0222 W/m/K
302.01 K, Amount density=2940 mol/m3, x2 = 0.5 | 0.0281 W/m/K
302.02 K, Amount density=446 mol/m3, x2 = 0.25 | 0.0214 W/m/K
302.02 K, Amount density=5680 mol/m3, x2 = 0.25 | 0.056 W/m/K
302.04 K, Amount density=2940 mol/m3, x2 = 0.25 | 0.0307 W/m/K
302.04 K, Amount density=6830 mol/m3, x2 = 0.25 | 0.0658 W/m/K
302.05 K, Amount density=8450 mol/m3, x2 = 0.25 | 0.0676 W/m/K
302.06 K, Amount density=7490 mol/m3, x2 = 0.25 | 0.0699 W/m/K
302.11 K, Amount density=3090 mol/m3, x2 = 0.26 | 0.0311 W/m/K
302.25 K, Amount density=6630 mol/m3, x2 = 0.74 | 0.0436 W/m/K
302.43 K, Amount density=5650 mol/m3, x2 = 0.5 | 0.0436 W/m/K
307.99 K, Amount density=2940 mol/m3, x2 = 0.5 | 0.0279 W/m/K
308 K, Amount density=7730 mol/m3, x2 = 0.5 | 0.0462 W/m/K
308.01 K, Amount density=6830 mol/m3, x2 = 0.25 | 0.0567 W/m/K
308.02 K, Amount density=6960 mol/m3, x2 = 0.5 | 0.0468 W/m/K
308.02 K, Amount density=7490 mol/m3, x2 = 0.25 | 0.0614 W/m/K
308.03 K, Amount density=7530 mol/m3, x2 = 0.5 | 0.0469 W/m/K
308.06 K, Amount density=5650 mol/m3, x2 = 0.5 | 0.041 W/m/K
308.06 K, Amount density=7450 mol/m3, x2 = 0.25 | 0.0646 W/m/K
308.06 K, Amount density=9120 mol/m3, x2 = 0.74 | 0.0485 W/m/K
308.07 K, Amount density=435 mol/m3, x2 = 0.5 | 0.0207 W/m/K
308.07 K, Amount density=446 mol/m3, x2 = 0.25 | 0.0219 W/m/K
308.09 K, Amount density=435 mol/m3, x2 = 0.5 | 0.0207 W/m/K
308.1 K, Amount density=877 mol/m3, x2 = 0.26 | 0.0228 W/m/K
308.12 K, Amount density=10780 mol/m3, x2 = 0.25 | 0.0659 W/m/K
308.15 K, Amount density=2940 mol/m3, x2 = 0.25 | 0.031 W/m/K
308.16 K, Amount density=3090 mol/m3, x2 = 0.26 | 0.0314 W/m/K
308.18 K, Amount density=6630 mol/m3, x2 = 0.74 | 0.0413 W/m/K
308.18 K, Amount density=6710 mol/m3, x2 = 0.26 | 0.054 W/m/K
308.23 K, Amount density=8450 mol/m3, x2 = 0.25 | 0.0617 W/m/K
308.7 K, Amount density=5680 mol/m3, x2 = 0.25 | 0.0516 W/m/K
318.04 K, Amount density=9120 mol/m3, x2 = 0.74 | 0.0354 W/m/K
318.11 K, Amount density=435 mol/m3, x2 = 0.5 | 0.0218 W/m/K
318.11 K, Amount density=6630 mol/m3, x2 = 0.74 | 0.0382 W/m/K
318.12 K, Amount density=7530 mol/m3, x2 = 0.5 | 0.0445 W/m/K
318.13 K, Amount density=5650 mol/m3, x2 = 0.5 | 0.0411 W/m/K
318.13 K, Amount density=6960 mol/m3, x2 = 0.5 | 0.0425 W/m/K
318.13 K, Amount density=7490 mol/m3, x2 = 0.25 | 0.0559 W/m/K
318.13 K, Amount density=7730 mol/m3, x2 = 0.5 | 0.0403 W/m/K
318.14 K, Amount density=2940 mol/m3, x2 = 0.5 | 0.0293 W/m/K
318.14 K, Amount density=6830 mol/m3, x2 = 0.25 | 0.0532 W/m/K
318.14 K, Amount density=10780 mol/m3, x2 = 0.25 | 0.065 W/m/K
318.15 K, Amount density=446 mol/m3, x2 = 0.25 | 0.0232 W/m/K
318.15 K, Amount density=5650 mol/m3, x2 = 0.5 | 0.0398 W/m/K
318.16 K, Amount density=2940 mol/m3, x2 = 0.25 | 0.0316 W/m/K
318.16 K, Amount density=8450 mol/m3, x2 = 0.25 | 0.049 W/m/K
318.17 K, Amount density=3090 mol/m3, x2 = 0.26 | 0.0318 W/m/K
318.19 K, Amount density=877 mol/m3, x2 = 0.26 | 0.0236 W/m/K
318.21 K, Amount density=6710 mol/m3, x2 = 0.26 | 0.0503 W/m/K
318.27 K, Amount density=5680 mol/m3, x2 = 0.25 | 0.0481 W/m/K
